Experimental data published in US9707196B2, “Treatment agent and/or prophylactic agent for side effects of cancer drugs” (SBI Pharmaceuticals Co., Ltd., priority 2011, dated 2017).

Key:
SD rats [1] = experiment: Side effects accompanying cisplatin administration in rats, with or without ALA (Example 1: survival, kidney HE staining, hair luster, stool state, activity); type: in vivo, rat; conditions: for Damage to the kidney (HE staining, Day 16): FIG. 2
Description: Forty-four 6 weeks-old SD rats (male) were purchased from Japan SLC, Inc. They were used for experiments after conditioning for 7 days after purchase.
The experiment duration was a total of 16 days, and experiment groups were divided into the following 5 groups I to V according to the ALA administration condition. […] CDDP administration dose was 8.0 mg/kg of body weight, and each rat was intraperitoneally administered. Saline was administered instead of cisplatin to Group I as the negative control group. ALA was also administered to Groups III, […], and V according to the following schedule. On the other hand, no ALA was administered to the positive control group (Group II). ALA administration to Groups III, IV, and V was performed by daily oral administration of 10 mg/kg of body weight of ALA hydrochloride salt+15.7 mg/kg of body weight of sodium ferrous citrate (dissolved in distilled water and sodium bicarbonate).
(ALA Administration Conditions of Groups I to V)
Group I (negative control group): Saline was administered on Day 6 from the start of experiment. They were otherwise kept as usual. n=4
Group II (positive control group): CDDP was administered on Day 6 from the start of experiment. They were otherwise kept as usual. n=10
Group III (“pre-administration group”): ALA was administered for a total of 5 days from the starting day of experiment to Day 5. CDDP was also administered on Day 6. They were otherwise kept as usual. n=10
Group IV (“post-administration group”): On Day 6 from the start of experiment, ALA was administered, and then CDDP was administered. ALA was also administered for 10 days from Day 6 to Day 15. They were otherwise kept as usual. n=9
Group V (“full administration group”): ALA was administered for 15 days from the starting day of experiment to Day 15. On Day 6, ALA was administered, and then CDDP was administered. n=9
Blood was collected every two days for 15 days from the starting day of experiment to Day 15. Observation of hair luster, stool state, and activity of rats was also carried out. Each rat was also dissected on Day 16, and the kidney was resected. Kidney sections were prepared after resection, and observed under a microscope after HE staining.
Side effects were strongly observed from Day 9 to Day 13 from the starting day of experiment. Accordingly, the state on Days 9, 11, and 13 were scored and evaluated. Hair luster here evaluates the side effect related to skin symptoms. Stool state evaluates the side effect related to the gastrointestinal system. Activity evaluates the side effect related to general symptoms, in particular evaluates the side effect related to malaise.
Each item was evaluated for each mouse by the following criteria, and is the numerical value of the sum of the three days (Days 9, 11, and 13) divided by the number of evaluation subject mice.
5: Very good, 4: ordinarily state, 3: slightly poor, 2: poor, and 1: death
5: Ordinarily stool, 4: small amount of stool, 3: slight diarrhea, 2: diarrhea, and 1: death
5: Ordinarily state, 4: weak movement, 3: slight movement, 2: no movement, and 1: death

SD rats [2] = experiment: Side effects on the kidney (nephrotoxicity) and weight loss accompanying cisplatin administration in rats, with or without ALA (Example 2); type: in vivo, rat; conditions: for Effect on side effects of anticancer agent on the kidney: FIGS. 4 to 6
Description: Serum creatinine and urea nitrogen value (BUN) were measured from blood samples. Moreover, urine protein was measured from urine samples.
Weight loss which is a side effect on general symptoms as well as a side effect related to the gastrointestinal system was also observed at the same time.
Forty-six 6 weeks-old SD rats (male) were purchased from Japan SLC, Inc. They were conditioned for 7 days after purchase. Body weight measurement, blood collection, and urine collection of each rat were performed at the end of the conditioning period. The experiment was started on the next day with 44 rats. Two individuals that had poor serum creatinine, urea nitrogen value (BUN), and urine protein value at the measurement after conditioning were excluded from the experiment.
In this experiment, experiment groups were divided into the following 4 groups I to IV according to the ALA administration condition. The experiment was otherwise performed similarly to Example 1.
Group I (negative control group): Saline was administered on Day 6 from the start of experiment. They were otherwise kept as usual. n=8
Group II (positive control group): CDDP was administered on Day 6 from the start of experiment. They were otherwise kept as usual. n=14
Group III (“post-administration group”): On Day 6 from the start of experiment, ALA was administered, and then CDDP was administered. ALA was also administered for 10 days from Day 6 to Day 15. They were otherwise kept as usual. n=10
Group IV (“full administration group”): ALA was administered for 15 days from the starting day of experiment to Day 15. On Day 6, ALA was administered, and then CDDP was administered. n=11
The body weight of each rat was measured, and blood and urine collection was carried out on starting day of experiment, Days 6, 7, 9, 11, 13, and 15. The collected blood samples were used for measuring serum creatinine and urea nitrogen value (BUN). In addition, the collected urine samples were used for measuring urine protein. Each rat was also dissected on Day 16, and the kidney was resected and observed.

[3] = system: T24 cells (human transitional cell bladder cancer cells); experiment: Cell toxicity of cisplatin against T24 cells with or without ALA (WST-8, Cell Counting Kit-8); type: cell-based; conditions: ALA hydrochloride salt 200 μM + sodium ferrous citrate 100 μM, any timing, FIG. 8
Description: (§1) It was validated whether or not ALA administration has an influence on the cell toxicity (anticancer effect) of anticancer agent against cancer cells.
(§2) The following cancer cells were employed in this experiment: T24 cells (human transitional cell bladder cancer cells) and 253J-BV cells (human urinary tract epithelium cancer cells). […] ALA hydrochloride salt was employed as ALA. In addition, sodium ferrous citrate was administered together with ALA administration.
(§3) Cell toxicity at each concentration was compared in the following Groups I to IV.
(§4) Group I: “No addition group,” i.e. the group with no ALA administered
(§5) Group II: “Pre-administration group,” i.e. the group with ALA administered only “during preculture”
(§6) (1) T24 cells (human transitional cell bladder cancer cells) or 253J-BV cells (human urinary tract epithelium cancer cells) were cultured with a 10 cm dish in DMEM medium comprising 10% FBS to a subconfluent state. They were then collected by trypsin treatment.
(§7) (2) For test groups Group I (no addition group) and Group III (simultaneous administration group), the cells collected in (1) were suspended to a density of 50000 cells/ml in DMEM medium comprising 10% FBS. […]

[4] = system: 253J-BV cells (human urinary tract epithelium cancer cells); experiment: Cell toxicity of cisplatin against 253J-BV cells with or without ALA (WST-8, Cell Counting Kit-8); type: cell-based; conditions: ALA hydrochloride salt 200 μM + sodium ferrous citrate 100 μM, any timing, FIG. 9
Description: as §1, §2, §3, §4, §5, §6, §7

[5] = Case of an advanced colon cancer patient taking aminolevulinic acid phosphate salt and sodium ferrous citrate concurrently with anticancer agent therapy (Example 4); type: in vivo, human; conditions: one patient
[6] = Group III (pre-administration): ALA hydrochloride salt 10 mg/kg + sodium ferrous citrate 15.7 mg/kg oral daily to Day 5, CDDP 8.0 mg/kg i.p. Day 6, sum of scores of Days 9, 11, 13 per animal
[7] = Group IV (post-administration): ALA hydrochloride salt 10 mg/kg + sodium ferrous citrate 15.7 mg/kg oral daily Day 6 to Day 15, CDDP 8.0 mg/kg i.p. Day 6, sum of scores of Days 9, 11, 13 per animal
[8] = Group V (full administration): ALA hydrochloride salt 10 mg/kg + sodium ferrous citrate 15.7 mg/kg oral daily from starting day to Day 15, CDDP 8.0 mg/kg i.p. Day 6, sum of scores of Days 9, 11, 13 per animal
[9] = Groups III, IV and V (ALA + CDDP) versus Group II, FIG. 1

NCC(=O)CCC(=O)O [ALA, 5-aminolevulinic acid]
Damage to the kidney (HE staining, Day 16) (SD rats [1]; ALA-administered groups + CDDP): alleviated the damage to the kidney | Damage to the kidney (HE staining, Day 16) (SD rats [1]; Group III (pre-administration) and Group IV (post-administration) + CDDP): a certain effect | Rat survival rate (SD rats [1]; Group III (pre-administration) or Group IV (post-administration) + CDDP, FIG. 1): a certain suppression effect | Activity (final evaluation) (SD rats [1]; [6]): 8.10 | Hair luster (final evaluation) (SD rats [1]; [6]): 8.10 | Overall evaluation (final evaluation) (SD rats [1]; [6]): 7.50 | Stool state (final evaluation) (SD rats [1]; [6]): 8.90 | Activity (final evaluation) (SD rats [1]; [7]): 9.56 | Hair luster (final evaluation) (SD rats [1]; [7]): 8.89 | Overall evaluation (final evaluation) (SD rats [1]; [7]): 8.78 | Stool state (final evaluation) (SD rats [1]; [7]): 10.78 | Damage to the kidney (HE staining, Day 16) (SD rats [1]; Group V (full administration) + CDDP): the most effective | Activity (final evaluation) (SD rats [1]; [8]): 11.33 | Hair luster (final evaluation) (SD rats [1]; [8]): 11.33 | Overall evaluation (final evaluation) (SD rats [1]; [8]): 9.67 | Stool state (final evaluation) (SD rats [1]; [8]): 13.33 | Rat survival rate (SD rats [1]; Group V (full administration, ALA throughout) + CDDP, FIG. 1): highest survival rate | Rat survival rate until Day 16 (SD rats [1]; [9]): reduction in the survival rate until Day 16 could be suppressed | Timing of the start of reduction in the survival rate (SD rats [1]; [9]): the timing of the start of reduction in the survival rate was delayed | Effect on weight loss (SD rats [2]; Group III (post-administration) + CDDP, FIG. 3): a certain effect | Effect on side effects of anticancer agent on the kidney (SD rats [2]; Group III (post-administration) + CDDP): a certain effect | Decrease in body weight (SD rats [2]; Group III (post-administration) and Group IV (full administration), ALA + CDDP, FIG. 3): decreased in body weight due to the side effects from anticancer agent was suppressed | Re-increase of body weight (SD rats [2]; Group III and Group IV, ALA + CDDP, FIG. 3): re-increase of body weight was observed on Day 5 and after | Urine protein value (SD rats [2]; Group III and Group IV, ALA + CDDP, slight increase on Day 3, FIG. 6): a value not much different from the negative control group was maintained | Serum creatinine value (SD rats [2]; Group III and Group IV, ALA + CDDP, slight increase on Day 5, FIG. 4): a value not much different from the negative control group was maintained | Urea nitrogen value (BUN) (SD rats [2]; Group III and Group IV, ALA + CDDP, slight increase on Day 5, FIG. 5): a value not much different from the negative control group was maintained | Effect on weight loss (SD rats [2]; Group IV (full administration) + CDDP, FIG. 3): the most effective | Effect on side effects of anticancer agent on the kidney (SD rats [2]; Group IV (full administration) + CDDP): the most effective | Influence of ALA administration on anticancer effect of cisplatin [3]: hardly attenuated | Influence of ALA administration on anticancer effect of cisplatin [4]: hardly attenuated

N.N.[Cl][Pt][Cl] [cisplatin, reference compound]
Rat survival rate (SD rats [1]; Group II (positive control): CDDP 8.0 mg/kg i.p. Day 6, no ALA, FIG. 1): reduction in the survival rate was seen on Day 9 | Hair luster (final evaluation) (SD rats [1]; Group II (positive control): CDDP 8.0 mg/kg i.p. on Day 6, no ALA, sum of scores (5 best, 1 death) of Days 9, 11, 13 divided by number of animals): 7.80

aminolevulinic acid phosphate salt
Time for which anticancer agent therapy could be continued after the surgery ([5]; FOLFOX, FOLFIRI and Avastin with oral 50 mg aminolevulinic acid phosphate salt + 57.4 mg sodium ferrous citrate per day): one year | Hemoglobin ([5]; Jan. 28, 2011, about 1 year and 5 months after starting oral 50 mg aminolevulinic acid phosphate salt + 57.4 mg sodium ferrous citrate per day, just before surgery 9.80): 12.20 g/dL | Number of Leukocytes ([5]; Jan. 28, 2011, about 1 year and 5 months after starting oral 50 mg aminolevulinic acid phosphate salt + 57.4 mg sodium ferrous citrate per day, just before surgery 13.20): 6200 µL⁻¹ | Number of Erythrocytes ([5]; Jan. 28, 2011, about 1 year and 5 months after starting oral 50 mg aminolevulinic acid phosphate salt + 57.4 mg sodium ferrous citrate per day, just before surgery (Aug. 19, 2009) 2.97): 3.44e+06 µL⁻¹ | Anemia improvement effect ([5]; about 1 year and 5 months after starting intake, with sodium ferrous citrate): anemia as a side effect of administration of anticancer agent is improved | Survival after surgery ([5]; declared life expectancy 3 months, oral 50 mg aminolevulinic acid phosphate salt + 57.4 mg sodium ferrous citrate per day): one and a half years
